{"source": "patent US6451807B1", "about": "“Methods of treating sexual dysfunction in an individual suffering from a retinal disease, class 1 congestive heart failure, or myocardial infarction using a PDE5 inhibitor” (Lilly Icos, LLC., priority 1999, dated 2002)", "key": {"healthy male volunteers": {"system": "healthy male volunteers", "test": "Clinical pharmacology drug interaction study with short-acting nitrates (Example 5)", "format": "in vivo, human", "method": "This study was a randomized, double-blind, placebo-controlled, two-way crossover design clinical pharmacology drug interaction study that evaluated the hemodynamic effects of concomitant administration of a selective PDE5 inhibitor Study Drug (i.e., the compound of structural formula (I)) and short-acting nitrates on healthy male volunteers. In this study, the subjects received either the Study Drug at a dose of 10 mg or a placebo, daily for seven days. On the sixth or seventh day, the subjects received sublingual nitroglycerin (0.4 mg) while supine on a tilt table. The nitroglycerin was administered 3 hours after Study Drug dosing, and all subjects kept the nitroglycerin tablet under their tongue until it completely dissolved. The subjects were tilted to 70° head-up every 5 minutes for a total of 30 minutes with measurement of blood pressure and heart rate. There were no discontinuations among the twenty-two healthy male subjects (ages 19 to 60 years old) that entered this study."}, "[1]": {"system": "patients in need thereof (erectile function)", "test": "Two randomized, double-blinded placebo controlled studies, daily and on demand dosing (Example 6)", "format": "in vivo, human", "method": "In two randomized, double-blinded placebo controlled studies, the compound of structural formula (I), at a range of doses in both daily dosing and for on demand therapy for sexual encounters and intercourse in the home setting, was administered to patients in need thereof.\nErectile function was assessed by the International Index of Erectile Function (IIEF) (Rosen et al., Urology, 49, pp. 822-830 (1997)), diaries of sexual attempts, and a global satisfaction question."}, "[2]": {"system": "male erectile dysfunction", "test": "Combined clinical studies, IIEF erectile function domain", "format": "in vivo, human"}, "PDE1c": {"target": "T1, PDE1c (Homo sapiens, UniProt Q14123)", "T1 construct": "made in house; host or cells: Spodoptera frugiperda Sf9 cells", "T1 sequence (Q14123 whole entry, species assumed)": "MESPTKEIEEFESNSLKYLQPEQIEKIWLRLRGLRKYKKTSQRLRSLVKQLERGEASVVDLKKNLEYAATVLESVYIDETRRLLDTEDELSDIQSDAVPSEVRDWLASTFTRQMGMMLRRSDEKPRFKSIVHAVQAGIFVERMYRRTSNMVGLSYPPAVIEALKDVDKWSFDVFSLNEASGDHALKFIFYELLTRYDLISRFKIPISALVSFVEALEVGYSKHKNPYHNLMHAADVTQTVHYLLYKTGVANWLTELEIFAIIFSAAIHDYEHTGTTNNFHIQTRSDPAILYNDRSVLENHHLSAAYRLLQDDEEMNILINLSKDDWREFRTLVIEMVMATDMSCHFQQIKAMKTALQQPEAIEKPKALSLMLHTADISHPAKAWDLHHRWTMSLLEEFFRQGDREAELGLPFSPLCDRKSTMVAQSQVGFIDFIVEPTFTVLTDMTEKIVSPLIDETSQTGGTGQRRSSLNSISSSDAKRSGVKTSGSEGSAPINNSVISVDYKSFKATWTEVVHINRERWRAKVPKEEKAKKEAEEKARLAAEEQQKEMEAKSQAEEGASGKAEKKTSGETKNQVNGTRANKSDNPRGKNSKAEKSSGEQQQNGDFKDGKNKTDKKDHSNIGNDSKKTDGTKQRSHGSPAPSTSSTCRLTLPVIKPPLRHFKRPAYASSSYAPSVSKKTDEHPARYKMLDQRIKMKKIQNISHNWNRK", "test": "PDE1c enzyme inhibition, IC50 determination", "format": "biochemical", "conditions": "read-out: IC50 against PDE1c", "method": "Cell pellets (5g) were thawed on ice with 20 ml of Lysis Buffer (50 mM MOPS pH 7.4, 10 μM ZnSO4, 0.1 mM CaCl2, 1 mM DTT, 2 mM benzamidine HCl, 5μg/ml each of pepstatin, leupeptin, and aprotenin). Cells were lysed by passage through a French pressure cell (SLM-Aminco) while temperatures were maintained below 10° C. The resultant cell homogenate was centrifuged at 36,000 rpm at 4° C. for 45 minutes in a Beckman ultracentrifuge using a Type TI45 rotor. The supernatant was discarded and the resultant pellet was resuspended with 40 ml of Solubilization Buffer (Lysis Buffer containing 1M NaCl, 0.1M MgCl2, 1 mM CaCl2, 20 μg/ml calmodulin, and 1% Sulfobetaine SB12 (Z3-12) by sonicating using a VibraCell tuner with a microtip for 3×30 seconds. This was performed in a crushed ice/salt mix for cooling. Following sonication, the mixture was slowly mixed for 30 minutes at 4° C. to finish solubilizing membrane bound proteins. This mixture was centrifuged in a Beckman ultracentrifuge using a type TI45 rotor at 36,000 rpm for 45 minutes. The supernatant was diluted with Lysis Buffer containing 10 μg/ml calpain inhibitor I and II. The precipitated protein was centrifuged for 20 minutes at 9,000 rpm in a Beckman JA-10 rotor. The recovered supernatant then was subjected to Mimetic Blue AP Agarose Chromatography. […]"}, "[3]": {"conditions": "10 mg daily for seven days, sublingual nitroglycerin 0.4 mg, preliminary analysis"}, "[4]": {"conditions": "10 mg daily for seven days, preliminary analysis"}}, "data": [{"molecule": "CN1CC(=O)N2[C@H](c3ccc4c(c3)OCO4)c3[nH]c4ccccc4c3C[C@@H]2C1=O", "note": "[Compound 5, (6R-trans)-6-(1,3-benzodioxol-5-yl)-2,3,6,7,12,12a-hexahydro-2-methylpyrazino[1′,2′:1,6]pyrido[3,4-b]indole-1,4-dione]", "values": [{"measurement": "serious adverse events", "setting": "healthy male volunteers; [3]", "result": "no serious adverse events"}, {"measurement": "tolerability", "setting": "healthy male volunteers; [3]", "result": "well tolerated"}, {"measurement": "changes in laboratory safety assessments or 12-lead ECGs", "setting": "healthy male volunteers; [4]", "result": "no Study Drug-associated changes in laboratory safety assessments or 12-lead ECGs"}, {"measurement": "most common adverse events", "setting": "healthy male volunteers; [4]", "result": "headache, dyspepsia, and back pain"}, {"measurement": "effects on mean systolic blood pressure and on mean maximal nitroglycerin-induced decrease in systolic blood pressure", "setting": "healthy male volunteers; 10 mg daily, nitroglycerin 0.4 mg 3 hours after dosing, tilt table", "result": "minimal effects"}, {"measurement": "impact on systolic blood pressure", "setting": "healthy male volunteers; human clinical studies, administered in conjunction with organic nitrates", "result": "minimal impact on systolic blood pressure"}, {"measurement": "efficacy", "setting": "[1]; 10 mg dose", "result": "fully efficacious"}, {"measurement": "side effects", "setting": "[1]; 10 mg dose", "result": "minimal side effects (no flushing and no reports of blue vision)"}, {"measurement": "efficacy", "setting": "[1]; doses from 5 to 20 mg", "result": "efficacious"}, {"measurement": "flushing", "setting": "[1]; doses from 5 to 20 mg", "result": "no flushing"}, {"measurement": "vision abnormalities", "setting": "[1]; doses from 5 to 20 mg", "result": "no reports of vision abnormalities"}, {"measurement": "erectile function as assessed by all endpoints (IIEF, diaries of sexual attempts, global satisfaction question)", "setting": "[1]; in vivo", "result": "significantly improved erectile function"}, {"measurement": "erectile function", "setting": "[1]; on demand and daily dose regimens, doses between 1 and 20 mg", "result": "significantly improved erectile function"}, {"measurement": "treatment of male erectile dysfunction", "setting": "[2]; combined results from clinical studies", "result": "effectively treats male erectile dysfunction"}, {"measurement": "IIEF erectile function domain (change from baseline), Mean ± SD", "setting": "[2]; unit dose 2 mg", "result": "3.9 ± 6.1"}, {"measurement": "IIEF erectile function domain (change from baseline), Mean ± SD", "setting": "[2]; unit dose 5 mg", "result": "6.6 ± 7.1"}, {"measurement": "IIEF erectile function domain (change from baseline), Mean ± SD", "setting": "[2]; unit dose 10 mg", "result": "7.9 ± 6.7"}, {"measurement": "IIEF erectile function domain (change from baseline), Mean ± SD", "setting": "[2]; unit dose 25 mg", "result": "9.4 ± 7.0"}, {"measurement": "IIEF erectile function domain (change from baseline), Mean ± SD", "setting": "[2]; unit dose 50 mg", "result": "9.8 ± 5.5"}, {"measurement": "IIEF erectile function domain (change from baseline), Mean ± SD", "setting": "[2]; unit dose 100 mg", "result": "8.4 ± 6.1"}, {"measurement": "IC50", "setting": "PDE1c", "result": 10, "unit": "µM"}]}]}
